In ChEMBL document CHEMBL4706537, “Suramin derivatives play an important role in blocking the interaction between FGF1 and FGFRD2 to inhibit cell proliferation” (Eur J Med Chem, 2020) one finds inhibition and IC50 data, which are given here for two molecules.

Each structure is given as a SMILES string. pIC50: −log10 of the molar value. The source made the active and inactive calls. The rule behind the calls is not given here.

Assay [1] has as its target T1, Fibroblast growth factor 1/Fibroblast growth factor receptor 2 (Homo sapiens) (UniProt P05230+P21802). In words: Inhibition of FGF1/FGFR2 D2 domain interaction in human MCF7 cells assessed as decrease in cell proliferation at 0.1 to 1 uM by WST-1 assay. The following applies: dose 0.1-1 µM. Type of assay: cell-based. Background: Tetrazolium assays rely on reduction of a dye to a coloured formazan, in cell work by metabolically active cells.

The next assay relates to MCF7. Nature of the assay: Cytotoxicity against FGF1-stimulated human MCF7 cells cultured in serum-starved media assessed as reduction in cell viability incubated for 48 hrs by WST-1 assay. The assay is classed as functional, cell-based. The following applies: MCF7, 48 h.
Assay [2] deals with T1, Fibroblast growth factor 1/Fibroblast growth factor receptor 2 (Homo sapiens). Nature of the assay: Inhibition of FGF1/FGFR2 D2 domain interaction in human MCF7 cells assessed as decrease in cell count at 0.1 to 1 uM by WST-1 assay. Type of assay: cell-based. The following applies: dose 0.1-1 µM.

T1 sequence (P05230 whole entry, looked up, the tested form may be a part): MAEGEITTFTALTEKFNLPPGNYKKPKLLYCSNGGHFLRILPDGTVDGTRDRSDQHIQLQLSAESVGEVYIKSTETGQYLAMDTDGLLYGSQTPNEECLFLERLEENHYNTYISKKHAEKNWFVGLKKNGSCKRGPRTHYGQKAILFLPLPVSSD
T1 sequence (P21802 whole entry, looked up, the tested form may be a part): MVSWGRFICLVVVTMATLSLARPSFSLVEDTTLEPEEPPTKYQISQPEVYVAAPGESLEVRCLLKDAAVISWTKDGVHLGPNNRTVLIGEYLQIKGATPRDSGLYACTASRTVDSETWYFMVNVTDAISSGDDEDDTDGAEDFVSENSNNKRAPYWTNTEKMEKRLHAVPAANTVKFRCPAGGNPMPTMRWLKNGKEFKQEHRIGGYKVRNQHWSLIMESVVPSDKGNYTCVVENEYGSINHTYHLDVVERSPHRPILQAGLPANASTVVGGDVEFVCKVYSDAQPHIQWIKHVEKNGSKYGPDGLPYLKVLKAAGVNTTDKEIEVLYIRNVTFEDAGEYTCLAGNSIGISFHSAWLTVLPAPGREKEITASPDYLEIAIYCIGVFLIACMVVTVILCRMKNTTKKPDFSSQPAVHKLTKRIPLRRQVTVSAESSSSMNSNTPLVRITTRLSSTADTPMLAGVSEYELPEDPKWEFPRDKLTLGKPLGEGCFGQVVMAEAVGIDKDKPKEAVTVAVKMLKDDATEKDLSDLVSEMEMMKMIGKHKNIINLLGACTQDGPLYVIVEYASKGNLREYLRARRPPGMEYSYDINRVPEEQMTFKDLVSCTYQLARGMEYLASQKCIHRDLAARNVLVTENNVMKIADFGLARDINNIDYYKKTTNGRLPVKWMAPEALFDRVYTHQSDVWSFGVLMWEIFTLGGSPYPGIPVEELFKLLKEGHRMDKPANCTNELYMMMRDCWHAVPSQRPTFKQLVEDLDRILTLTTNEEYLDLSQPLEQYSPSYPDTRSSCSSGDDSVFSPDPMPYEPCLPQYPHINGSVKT

`Cc1ccc(C(=O)Nc2ccc(S(=O)(=O)O)c3cc(S(=O)(=O)O)cc(S(=O)(=O)O)c23)cc1NC(=O)c1cccc(NC(=O)Nc2cccc(C(=O)Nc3cc(C(=O)Nc4ccc(S(=O)(=O)O)c5cc(S(=O)(=O)O)cc(S(=O)(=O)O)c45)ccc3C)c2)c1` [SURAMIN]: the inhibition result in assay [1] is “Active”. Moreover, the pIC50 with MCF7 is 3.81.

Turning to `O=C(Nc1ccc(C(=O)Nc2ccc(C(=O)Nc3cccc4cc(S(=O)(=O)O)ccc34)cc2)cc1)Nc1ccc(C(=O)Nc2ccc(C(=O)Nc3cccc4cc(S(=O)(=O)O)ccc34)cc2)cc1`, the inhibition result in assay [1] and in assay [2] was “Active” each time. In the assay with MCF7, the pIC50 is 3.21.

By pIC50 is commonly meant the IC50 on a negative log10 scale, so that one unit is a factor of ten.
